Columns and labels:
[1] = test system: prostanoid pathways (thromboxane B2) in rabbit platelets; assay: Inhibition of the metabolism of [14C]arachidonate in rabbit platelets (disappearance of TXB2); assay type: cell-based; conditions: Oryctolagus cuniculus, Platelet
Experimental: 1.2--Inhibition of the metabolism of [^14 C]arachidonate in rabbit platelets
12 ml of blood are withdrawn nitracardially into ACD (anticoagulant consisting of an aqueous solution containing 0.27 g of citric acid, 0.5 g of disodium citrate and 0.02 g of glucose for 20 ml of water) in a proportion of 1 volume of ACD for 6 volumes of blood. The mixture is centrifuged (10 minutes, 200×g, 20° C.), and the supernatent (PRP) collected and centrifuged again (15 minutes, 1500×g, 20° C.). The platelet pellet is washed in buffer I [NaCl, 8 g/l; Tris, 1.21 g/l; KCl, 0.2 g/l; gelatin, 2.5 g/l; this mixture is heated to 90° C. to dissolve the gelatin, and then glucose, 1 g/l, and ethylene glycol bis(β-aminoethyl ether) N,N,N',N'-tetraacetic acid or EGTA, 0.075 g/l, are added]. The suspension is centrifuged (15 minutes, 1500×g, 20° C.) and the pellet taken up in buffer II (NaCl, 8 g/l; Tris, 1.21 g/l; KCl, 0.2 g/l; CaCl2, 0.145 g/l; MgCl2, 0.2 g/l; gelatin, 2.5 g/l; the mixture is brought to 90° C., glucose, 1 g/l, is added and the pH is adjusted to 7.4 with 0.1N HCl).
The platelet suspension (0.4 ml/tube) is preincubated for 10 minutes at 37° C., either with 10 μl of DMSO (control), or with varied concentrations of test compounds dissolved in 10 μl of DMSO.
The incubation is carried out in the presence of [^14 C]arachidonate (1 μg, 0.2 μCi) distributed in 0.1 ml of buffer II, and the incubation is then blocked after 15 minutes with 50 μl of citric acid and 250 μl of saturated NaCl.
After extraction with ethyl acetate, the metabolites of [^14 C]arachidonate are separated by thin layer chromatography and quantified using a radio-scanner.
The percentage inhibition of the prostanoid pathways is estimated by measuring the disappearance of thromboxane B2 (TXB2) in terms of the concentration of each compound.
Results corresponding to 50 μM and 100 μM of compounds of formula I are given by way of example in Table II.

[2] = test system: lipoxygenase of circulating human leukocytes (PMNs); assay: Inhibition of the lipoxygenase of circulating human leukocytes (PMNs), by radioimmunoassay of LTC4; assay type: cell-based; conditions: Leukocyte, 8 min, calcium ionophore A23187 (0.25 μM), 8 minutes at 37° C.
Experimental: 1.1--Inhibition of the lipoxygenase of circulating human leukocytes (PMNs), by radioimmunoassay of LTC4 Methods Heparinized human blood is sedimented for 1 hour at 37° C. in sterile saline solution containing 4.5% of Dextran T 500. The upper, leukocyte-rich phase, is collected, deposited on Ficoll-Paque (7:3 v/v) and then centrifuged (20 minutes, 400×g, 4° C.). The centrifugation pellet is treated with 0.75% strength NH4 Cl to lyse the red cells. After centrifugation (20 minutes, 400×g, 4° C.), supernatent is removed and the pellet is resuspended in Dulbecco's PBS buffer containing 1 mM calcium chloride. […] The incubation is blocked by adding one volume of ice-cold water, and the suspension is centrifuged (15 minutes, 1500×g, 4° C.). Aliquots of the supernatent are then subjected to radioimmunoassay (New England Nuclear Kit). The percentage inhibition of the 5-lipoxygenase pathway is measured in terms of the concentration of each compound. From these curves, the concentration which 50% inhibits LTC4 tracer formation (IC50) is deduced.

[3] = test system: protein influx into the anterior chamber of the eye; assay: Inhibition of protein influx into the anterior chamber of the eye after corneal paracentesis; assay type: in vivo, albino New Zealand rabbits; conditions: rabbit eye
Experimental: Anti-inflammatory activity measured by the inhibition of protein influx into the anterior chamber of the eye after corneal paracentesis. […] The effect of various concentrations of each compound is measured on 6 eyes of albino New Zealand rabbits.

[4] = Acute toxicity (LD50) in rats; conditions: rat, in vivo, 14 days of observation, with 5% confidence interval
Experimental: The rats used are of Wistar strain of average weight 150 g.
The LD50 is determined after 14 days of observation.
The results below give the LD50 values for the compound 3 of the invention, together with the 5% confidence interval.

[5] = test system: leukocyte infiltration into the aqueous humour; conditions: recent experimental studies; cited from earlier work

IC50 [2] [nM]	SMILES	inhibition at 50 µM [1] [%]	inhibition at 100 µM [1] [%]	further results
1200	Oc1ccccc1Nc1nccs1 [Compound 1]	34	91	–
300	Oc1ccc(Cl)cc1Nc1nccs1 [Compound 2]	100	100	–
250	Cc1ccc(O)c(Nc2nccs2)c1 [Compound 4]	68	–	–

More lines, now with the values behind:

SMILES	IC50 [2] [nM]	inhibition at 50 µM [1] [%]	inhibition at 100 µM [1] [%]	further results
Oc1cccnc1Nc1nccs1 [Compound 7]	–	36	36	–
CC(C)(C)c1ccc(Nc2nccs2)c(O)c1 [Compound 5]	1600	76	–	–
Cc1cc(C)c(O)c(Nc2nccs2)c1 [Compound 6]	200	70	–	–
Cc1ccc(Nc2nccs2)c(O)c1.Cl [Compound 3, 2-(2-hydroxy-4-methylphenyl)aminothiazole hydrochloride]	330	100	100	Inhibition (%) of protein influx into the anterior chamber of the eye after corneal paracentesis ([3]; 0.1 mg/100 ml): 20%; Inhibition (%) of protein influx into the anterior chamber of the eye after corneal paracentesis ([3]; 0.5 mg/100 ml): 35%; Inhibition (%) of protein influx into the anterior chamber of the eye after corneal paracentesis ([3]; 1 mg/100 ml): 50%; LD50 at 336 h ([4]; iv, female rat): 51 ± 2 mg/kg; LD50 at 336 h ([4]; iv, male rat): 51 ± 2 mg/kg; LD50 at 336 h ([4]; po, female rat): 2350 ± 90 mg/kg; LD50 at 336 h ([4]; po, male rat): 2950 ± 96 mg/kg
COc1ccc2c(c1)c(CC(=O)O)c(C)n2C(=O)c1ccc(Cl)cc1 [Indomethacin]	–	–	–	leukocyte infiltration into the aqueous humour [5]: increases the leukocyte infiltration into the aqueous humour

Reference: patent publication US4785008A, “N-substituted 2-amino-thiazoles, process for their preparation and their therapeutic application” (Laboratoires Chauvin-Blache, priority 1985, dated 1988)
